# How the values were obtained:
# CAPAN-1 xenografts = assay: Arrest of growth of CAPAN-1 xenografts in athymic nu/nu mice (Table 2); type: in vivo, human; conditions: 1 ml of 50 mM i.p.
# Experimental: The tumor cell lines employed were CT26, a mouse undifferentiated, aggressive colon carcinoma, and CAPAN-1, a well-differentiated human pancreatic adenocarcinoma. […] The cells are shown to be free of Mycoplasma contamination. Cells are cultured at 37° C. in a humidified atmosphere of 5% CO2 /95% air in MEM supplemented with antibiotics (100 units of penicillin per ml and 100 μg streptomycin per ml), L-glutamine (2 mM), non-essential amino acids (0.1 mM), sodium pyruvate (1 mM), and 10% fetal bovine serum.
# In the tests, females and males CB6F1 mice (a standard F1 hybrid of BALB/C and C57BL/6) obtained from Jackson Laboratories, Bar Harbor, Maine and athymic outbred NCr nu/nu mice (males and females) from the Department of Radiation Medicine, Massachusetts General Hospital, Boston, Mass. 02114 are used. All the mice are kept for at least two weeks before inoculation of the tumors and the start of treatment and are 7-9 weeks old (CB6F1) or 6-7 weeks old (athymic nu/nu) at the start of the procedure. Animals weigh 20-25 g (females) or 23-28 g (males), are housed 5-12 per cage, and have ad libitum access to food and water.
# Tumor cells are removed from subconfluent cultures by a mild trypsin-EDTA treatment, the cell pellet is washed once with MEM without serum and the cells are suspended at the desired cell numbers in PBS (phosphate-bufferedsaline, 8 g NaCl, 0.2 g KCl, 1.15 g Na2 HPO4.7H2 O, and 0.2 g KH2 PO4 per liter). Cell suspensions are shown to be at least 90% viable by trypan blue exclusion. Mice are injected subcutaneously in the right hind footpad with tumor cells suspended in 50 μl of PBS. The regular protocol (unless otherwise stated) consists of daily i.p. injections of 1 ml of 0.85% NaCl solution or 1 ml of 50 mM of AMP, ADP, or ATP in 0.85% NaCl (from stock solutions adjusted to pH 6.2) starting one day after tumor inoculation and given for ten consecutive days.
# Injections are administered with 30 gauge needles and the mice are lightly anesthetized with ether. The mice are weighed before the start of treatment and once a week during and after treatment. After the tumors become palpable, tumor sizes are determined every three days. The animals are sacrificed, tumors are excised and weighed before they reach 10% of the animals' weight.
# The effects of AMP, ADP, and ATP on human tumor xenografts in nude mice were evaluated utilizing the pancreatic ductal adenocarcinoma CAPAN-1 (see Kyriazis AP, Kyriazis AA, Scarpelli DG, Fogh J, Rao SM, Lepera R., "Human Pancreatic Adenocarcinoma Line CAPAN-1 in Tissue Culture and the Nude Mouse", Am. J. Pathol., 1982, 106, 250-260).
# Treatment schedules consist of single daily i.p. injections for 10 consecutive days, starting one day after tumor inoculation. Tumor burden is relatively low (0.5-1×10^5 cells implanted) and tumor growth is slow (tumors became palpable 4-6 weeks after inoculation).
# RBC ATP pools = assay: Stability of expanded RBC ATP pools in washed isolated RBCs in vitro after i.p. injection (Table 5); set-up: species or system mouse; conditions: average of two experiments; for Medium (Hanks' BSS) [^3 H]ATP levels immediately after [^3 H]adenosine incorporation into isolated, washed RBCs (at time 0) / ATP levels in the medium (Hanks' BSS): time 0; for ATP levels in the medium (Hanks' BSS): bioluminometry; for RBC ATP pools (37° C.), 0 min / RBC ATP pools (37° C.), 120 min: washed RBCs in Hanks' BSS
# Experimental: The mice are anesthetized with ether during the procedure. Plasma or Hanks' (Balanced Salt Solution) BSS media from incubated isolated RBCs (Red Blood Cells) are prepared by centrifugation of whole blood or RBCs in a Beckman microfuge (30 seconds at 8000 xg) and samples of 100 μl are added to 1 ml of ice-cold 7% trichloroacetic acid. Red blood cells are prepared by centrifugation of whole blood (1500 xg for 5 minutes at 4° C.) and removal of plasma and the buffy coat is followed by a wash of the pelleted RBCs (from 250 μl of whole blood) in 5 ml of ice-cold Hanks' BSS. After centrifugations, the RBCs pellet is resuspended in Hanks' BSS to yield a total volume with the original hematocrit (percent of RBCs volume in the whole blood). Aliquots of 20 μl of RBCs suspensions or whole blood are added to 1 ml of ice-cold 7% trichloroacetic acid. Extraction of acid-soluble nucleotides and determinations of ATP levels by luminometry followed procedures discussed hereinabove. Levels of [^3 H]ATP in whole blood, RBCs, plasma, or RBCs incubation media (Hanks' BSS) are determined after incorporation of 250 μCi of [^3 H]adenosine of specific radioactivity of 30 Ci/mmol (1 Ci=3.7×10^10 becquerels) into whole blood or RBC suspensions (250 μl total) followed by immediate trichloroacetic acid extractions as described above. Two dimensional thin layer chromatography on poly(ethylene)imine cellulose with an unlabeled ATP carrier is performed according to Bochner and Ames, J. Biol. Chem., 257, pp. 9759-9769, 1982). For the determination of whole blood or isolated RBC [^3 H]ATP pools, 10 μl of a 1 ml initial trichloroacetic acid extract are chromatographed. Determinations of [^3 H]ATP levels in blood plasma or RBCs incubation media are performed on 300 μl of an initial 1 ml trichloroacetic acid extract which are lyophilized and redissolved in 15 μl of water. After chromatography, the spots corresponding to the ATP carrier are cut, eluted with 0.5 ml of 4 N ammonium hydroxide, and radioactivity determined in 10 ml of scintillation fluid.
# Two hour incubations of washed isolated RBCs containing normal or expanded ATP pools in Hanks' BSS result in relatively small decreases in RBC ATP pools with the expanded pools being maintained well above normal levels (Table 5). The expansions of RBC ATP pools after i.p. administration of AMP or ATP in vivo is presumably the result of their dephosphorylation followed by the RBCs uptake of the adenosine which is generated in situ.
# [1] = experiment 4, 11 F, 0.5 × 10^5 cells, 10 weeks
# [2] = experiment 5, 10 F, 0.5 × 10^5 cells, 9 weeks
Structure (SMILES),Arrested tumors/implanted tumors (CAPAN-1 xenografts; [1]),Arrested tumors/implanted tumors (CAPAN-1 xenografts; [2]),"Medium (Hanks' BSS) [^3 H]ATP levels immediately after [^3 H]adenosine incorporation into isolated, washed RBCs (at time 0) (RBC ATP pools)",ATP levels in the medium (Hanks' BSS) (RBC ATP pools),"RBC ATP pools (37° C.), 0 min (RBC ATP pools)","RBC ATP pools (37° C.), 120 min (RBC ATP pools)","Arrested tumors/implanted tumors (CAPAN-1 xenografts; experiment 2, 5 F, 1 × 10^5 cells, 7 weeks)","Arrested tumors/implanted tumors (CAPAN-1 xenografts; experiment 3, 5 F, 1 × 10^5 cells, 6 weeks)"
"Nc1ncnc2c1ncn2[C@@H]1O[C@H](COP(=O)(O)O)[C@@H](O)[C@H]1O [AMP, adenosine 5'-monophosphate]",7/11,6/10,1.81 µM,2.42 µM,1.01 mM,0.86 mM,,
"Nc1ncnc2c1ncn2[C@@H]1O[C@H](COP(=O)(O)OP(=O)(O)OP(=O)(O)O)[C@@H](O)[C@H]1O [ATP, adenosine 5'-triphosphate]",8/11,8/10,4.93 µM,4.08 µM,2.52 mM,1.76 mM,4/5,3/5

# Reference: US5049372A, “Anticancer activities in a host by increasing blood and plasma adenosine 5'-triphosphate (ATP) levels” (priority 1988, dated 1991)
